Tested on: Vesicular stomatitis virus (VSV)
Assay type: cell-based
Settings: 30 mM final concentration of OG at 5° C., VSV spiked CRP

CCCCCCCCO[C@@H]1O[C@H](CO)[C@@H](O)[C@H](O)[C@H]1O [OG, N-Octyl-β-D-Glucopyranoside]
log 10 reduction factor (LRF): ≥ 5.3

Reference: US20250074970A1, “METHOD OF PURIFYING IMMUNOGLOBULIN G AND USES THEREOF” (CSL Behring AG, priority 2021, published 2025)
